Source: patent US20230029194A1, “MACROCYLIC SULFONYL DERIVATIVES MCL-1 INHIBITORS” (Janssen Pharmaceutica NV, priority 2019, published 2023)
Like-named read-outs stand apart in the source and are kept apart here.

How the values were obtained:
[1] = molecular target: Myeloid Cell Leukemia 1 (Mcl-1) (Homo sapiens, UniProt Q07820); test: Terbium labeled Mcl-1 HTRF binding assay utilizing the Cy5-labeled BIM BH3 peptide
Description: Terbium labeled Myeloid Cell Leukemia 1(Mcl-1) homogeneous time-resolved fluorescence (HTRF) binding assay utilizing the BIM BH3 peptide (H2N—(C/Cy5Mal) WIAQELRRIGDEFN-OH) as the binding partner for Mcl 1.
This assay evaluated inhibition of the BH3 domain: Mcl-1 interaction by measuring the displacement of Cy5-labeled BIM BH3 peptide (H2N—(C/Cy5Mal) WIAQELRRIGDEFN-OH) in the HTRF assay format.
The following assay and stock buffers were prepared for use in the assay: (a) Stock buffer: 10 mM Tris—HCl, pH=7.5+150 mM NaCl, filtered, sterilized, and stored at 4° C.; and (b) 1X assay buffer, where the following ingredients were added fresh to stock buffer: 2 mM dithiothreitol (DTT), 0.0025% Tween-20, 0.1 mg/mL bovine serum albumin (BSA). The 1X Tb—Mcl-1+Cy5 Bim peptide solution was prepared by diluting the protein stock solution using the 1X assay buffer (b) to 25 pM Tb—Mcl-1 and 8 nM Cy5 Bim peptide.
Using the Acoustic ECHO, 100 nL of 100x test compound(s) were dispensed into individual wells of a white 384-well Perkin Elmer Proxiplate, for a final compound concentration of 1x and final DMSO concentration of 1%. Inhibitor control and neutral control (NC, 100 nL of 100% DMSO) were stamped into columns 23 and 24 of assay plate, respectively. Into each well of the plate was then dispensed 10 μL of the 1X Tb—Mcl-1+Cy5 Bim peptide solution. The plate was centrifuged with a cover plate at 1000 rpm for 1 minute, then incubated for 60 minutes at room temperature with plates covered. The TR-FRET signal was read on an BMG PHERAStar FSX MicroPlate Reader at room temperature using the HTRF optic module (HTRF: excitation: 337 nm, light source: laser, emission A: 665 nm, emission B: 620 nm, integration start: 60 μs, integration time: 400 μs).
The BMG PHERAStar FSX MicroPlate Reader was used to measure fluorescence intensity at two emission wavelengths—665nm and 620 nm—and report relative fluorescence units (RFU) for both emissions, as well as a ratio of the emissions (665 nm/620 nm)*10,000. The RFU values were normalized to percent inhibition as follows:
% inhibition=(((NC−IC)−(compound−IC))/(NC−IC))*100
where IC (inhibitor control, low signal)=mean signal of 1X Tb—MCl-1+Cy5 Bim peptide+inhibitor control or 100% inhibition of Mcl-1; NC (neutral control, high signal)=mean signal 1X Tb—MCl-1+Cy5 Bim peptide with DMSO only or 0% inhibition An 11-point dose response curve was generated to determine IC50 values (using GenData) based on the following equation:
Y=Bottom+(Top−Bottom)/(1+10((logIC50−X)*HillSlope))
where Y=% inhibition in the presence of X inhibitor concentration; Top=100% inhibition derived from the IC (mean signal of Mcl-1+inhibitor control); Bottom=0% inhibition derived from the NC (mean signal of Mcl-1+DMSO); Hillslope=Hill coefficient; and IC50=concentration of compound with 50% inhibition in relation to top/neutral control (NC).
In this assay [L]=8 nM and Kd=10 nM

MOLP8 cells = test: MOLP8 CellEvent Caspase-3/7 Green live-cell IncuCyte apoptosis assay; assay type: cell-based, human; settings: averaged, number of independent runs in brackets
Description: (§1) MCL-1 is a regulator of apoptosis and is highly over-expressed in tumor cells that escape cell death. The assay evaluates the cellular potency of small-molecule compounds targeting regulators of the apoptosis pathway, primarily MCL-1, Bfl-1, Bcl-2, and other proteins of the Bcl-2 family. Protein-protein inhibitors disrupting the interaction of anti-apoptotic regulators with BH3-domain proteins initiate apoptosis.
Activation of the apoptotic pathway was measured using the CellEvent™ Caspase-3/7 Green ReadyProbes™ Reagent (Thermo Fisher C10423, C10723). This assay produces a green fluorescent stain in cells that enter the apoptosis pathway. CellEvent® Caspase-3/7 Green reagent is a four amino acid peptide (DEVD) conjugated to a nucleic acid-binding dye that is non-fluorescent when not bound to DNA. The CellEvent® Caspase-3/7 Green reagent is intrinsically non-fluorescent, as the DEVD peptide inhibits binding of the dye to DNA. Upon activation of caspase-3/7 in apoptotic cells, the DEVD peptide is cleaved and the free dye can bind DNA, generating a bright green fluorescence. The activation of Caspase-3 and Caspase-7 is downstream of inhibition of MCL-1 or other apoptosis inhibiting proteins in cell lines that are dependent on them.
The live-cell readout on the IncuCyte permits tracking over time of the Caspase activation. […] The IncuCyte readout also allows one to normalize for cell number, as the suspension cells are hard to distribute evenly.
Signals were measured every 2 h for a duration of 22 h. The ratio of the Caspase mask to the Confluence mask, per image, as raw data, was calculated and the kinetic trace for every well was exported to Genedata Screener for analysis.
In Genedata Screener values for 6 h, 12 h, and 22 h from the kinetic traces were extracted. The values were normalized against negative controls (untreated cells). A standard dose-response analysis was performed on the normalized data.
The following data was reported at each of the following three aforementioned time points: (a) The dose-response curve, (b) The qAC50 and qAC50 Mode, and (c) Max Activity.
Cells were maintained in culture medium containing 10% Heat Inactivated (HI) FBS, 2 mM L-Glutamine and 50 μg/mL Gentamycin phenol red free RPMI-1640. Cells were split at 0.4 million/mL twice a week.
On Day 1, plates containing individual wells with test compounds at 10 mM concentration, 150 nL per well. The final concentrations range from […] to 10 pM compound (and no compound control) and compounds were thawed at room temperature for 1 hour. 25 μl of prewarmed medium was added into each well by multidrop (column 1, 3-22, 24), followed by addition of DMSO control (0.6% DMSO) in column 2. The plate was sealed using Breathe-Easy®) sealing membrane and shaken for 30 min at room temperature to dissolve the test compound(s) in medium. The plate was then kept in the incubator for 1 hour at 37° C., 5% CO2.
MOLP8 cells in medium at 40000/25 μl (20000/50 μl final in assay) were prepared with CellEvent™ Caspase-3/7 Green Detection Reagent at 4 μM (2 μM final in assay). Once prepared, the cells were added to the test compound plate in an amount of 20000 and the plate was immediately placed in the IncuCyte and imaging started using following settings: 10X objective, 2 s exposure time in green channel, interval of 2 h, acquisition stopped after 22 h.
For analysis in IncuCyte, a Basic Analysis protocol was defined to calculate the “confluence” and “caspase” areas from the “Phase” and “green” images, respectively, as follows: (a) Confluence: Segmentation Adjustment 1, Hole Fill 0, Adjust Size −2, No filters (b) Caspase: Top-Hat segmentation, Radius 10, Threshold 0.3 GCU, Edge Split On with sensitivity 0, Hole Fill 0, Adjust Size 1, and filter on a minimum Area of 20 μm. The analyzer is trained on a sufficient number of positive and negative control wells, as well as compound treated wells, verifying that the “confluence” layer detects both live and dead (condensed) cells. […]

[2] = system: MOLP-8 human multiple myeloma cell line; test: MOLP8 Caspase-Glo 3/7 luminescent assay; assay type: cell-based; settings: MOLP8 cells, 2 hours incubation, 10% FBS assay media, 30 μM highest conc.; averaged over all runs on all batches
From the text: as §1
The Caspase-Glo® 3/7 Assay is a luminescent assay that measures caspase-3 and -7 activities in purified enzyme preparations or cultures of adherent or suspension cells. The assay provides a proluminescent caspase-3/7 substrate, which contains the tetrapeptide sequence DEVD. This substrate is cleaved to release aminoluciferin, a substrate of luciferase used in the production of light. Addition of the single Caspase-Glo® 3/7 Reagent in an “add-mix-measure” format results in cell lysis, followed by caspase cleavage of the substrate and generation of a “glow-type” luminescent signal. This assay uses the MOLP-8 human multiple myeloma cell line, which is sensitive to MCL-1 inhibition.
Cell cultures were maintained between 0.2 and 2.0×10^6 cells/mL. The cells were harvested by collection in 50 mL conical tubes. The cells were then pelleted at 500 g for 5 mins before removing supernatant and resuspension in fresh pre-warmed culture medium. The cells were counted and diluted as needed.
The assay reagent was prepared by transferring the buffer solution to the substrate vial and mixing. The solution may be stored for up to 1 week at 4° C. with negligible loss of signal.
Compounds were delivered in assay-ready plates (Proxiplate) and stored at −20° C. Assays always include 1 reference compound plate containing reference compounds. The plates were spotted with 40 nL of compounds (0.5% DMSO final in cells; serial dilution; 30 μM highest conc. 1/3 dilution, 10 doses, duplicates). […] The plates were then sealed and measured after 30 minutes.
The activity of a test compound was calculated as percent change in apoptosis induction as follows: […]

[3] = values obtained after recalibration of the equipment, averaged over several runs
[4] = 6 h, read-out: MOLP8 Caspase 3/7 AC50 at 6 h
[5] = 12 h, read-out: MOLP8 Caspase 3/7 AC50 at 12 h
[6] = 22 h, read-out: MOLP8 Caspase 3/7 AC50 at 22 h
[7] = Ki=IC50/(1+[L]/Kd), [L]=8 nM, Kd=10 nM, first table (before recalibration of the equipment)

Chain of Myeloid Cell Leukemia 1 (Mcl-1) (Q07820 whole entry): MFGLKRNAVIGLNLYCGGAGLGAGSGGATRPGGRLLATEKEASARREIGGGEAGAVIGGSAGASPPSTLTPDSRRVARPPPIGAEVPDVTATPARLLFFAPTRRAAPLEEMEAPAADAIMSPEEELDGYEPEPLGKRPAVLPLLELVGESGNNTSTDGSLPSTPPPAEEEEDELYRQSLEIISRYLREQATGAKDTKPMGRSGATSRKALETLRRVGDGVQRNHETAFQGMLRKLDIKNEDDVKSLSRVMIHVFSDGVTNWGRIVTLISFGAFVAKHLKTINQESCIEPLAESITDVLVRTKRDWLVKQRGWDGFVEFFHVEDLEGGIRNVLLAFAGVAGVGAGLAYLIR

| Compound | Ki [1, 3] | AC50 (MOLP8 cells; [4]) | AC50 (MOLP8 cells; [5]) | AC50 (MOLP8 cells; [6]) | AC50 [2] | Ki [1, 7] |
| --- | --- | --- | --- | --- | --- | --- |
| Cc1c2c(nn1C)CS(=O)(=O)Cc1cc(n(C)n1)CSc1cc(c3ccccc3c1)OCCCc1c(C(=O)O)n(C)c3c-2c(Cl)ccc13 (single isomer, unassigned) [Compound 3] | 0.04 nM | 680 nM | 620 nM | 540 nM | 400 nM | – |
| Cc1c2c(nn1C)CS(=O)(=O)Cc1cc(n(C)n1)CSc1cc(c3ccccc3c1)OCCCc1c(C(=O)O)n(C)c3c-2c(Cl)ccc13 (single isomer, unassigned) [Compound 4] | 3 nM | 18600 nM | 20200 nM | 21600 nM | 14100 nM | 1.7 nM |
| Cc1c2c(nn1C)CN(C)Cc1cc(n(C)n1)CS(=O)(=O)c1cc(c3ccccc3c1)OCCCc1c(C(=O)O)n(C)c3c-2c(Cl)ccc13 (single isomer, unassigned) [Compound 2] | 153 nM | > 30200 nM | > 30200 nM | > 30200 nM | – | 86.3 nM |
| Cc1c2c(nn1C)CN(C)Cc1cc(n(C)n1)CS(=O)(=O)c1cc(c3ccccc3c1)OCCCc1c(C(=O)O)n(C)c3c-2c(Cl)ccc13 (single isomer, unassigned) [Compound 1] | 0.56 nM | 4470 nM | 5580 nM | 5750 nM | 3900 nM | 0.62 nM |
